# According to patent publication US20230077104A1, “L-SEPIAPTERIN AND METHODS OF USE FOR TREATING DISEASES AND DISORDERS” (THE UNITED STATES GOVERNMENT AS REPRESENTED BY THE …, priority 2020, published 2023):
# Tests used:
# p38α = p38α (Homo sapiens, UniProt Q16539); settings: cited from earlier work
# HRGECs / neutrophils [1] = experiment: Neutrophil adhesion to SLE serum-treated HRGECs, by dose of the patients' medication; assay type: cell-based, human; settings: serum of SLE patients on differing doses
# Description: HRGECs were cultured in 48 well fibronectin-coated plates at 80 000 cells per well in complete growth media until confluent. HRGECs were washed, serum starved for 1 hour in ECM supplemented with 0.5% FBS, washed again. Treatments consisting of ECM only, 2.5% serum (lupus or control) in ECM or 100 ng/mL TNF-alpha (Thermo Fisher Scientific) (positive control) in ECM were added to the HRGECs, and cells underwent incubation for 3 hours at 37° C. HRGECs were then washed three times with RPMI-1640 (without phenol red); 6×10^5 Calcein AM-labelled neutrophils were added to each well of the treated HRGECs. Cells were incubated for 20 min at 37° C. and washed five times with PBS (without Ca^2+/Mg^2+). Fluorescence intensity was quantified before the first wash and after the fifth wash to determine percent cell adherence, with all values then normalized to untreated controls. Fluorescence intensity was measured from the top of the plate at 485 nm excitation, 520 nm emission using a fluorescence microplate reader (Biotek HT Synergy).
# HRGECs / neutrophils [2] = experiment: Neutrophil migration to conditioned media of SLE serum-treated HRGECs, by dose of the patients' medication; assay type: cell-based, human; settings: serum of SLE patients on differing doses
# Description: HRGECs were plated at 4×10^4 cells per well of a 48-well fibronectin-coated plate in complete growth media at 37° C. with 5% CO2. On confluence, cells were washed three times in ECM. Cells were then cultured with 10% serum (SLE or control) in ECM for 3 hours and then washed three times in ECM. Cells were serum starved overnight in ECM. The resulting conditioned media (CM) was then collected and passed through a 0.2 μm pore membrane to remove any cellular debris and frozen at −80° C. for later use.
# Transwell membrane chambers with 3 μm pores from a 96-well Migration Plate (Corning, Corning, N.Y., USA) were equilibrated in RPMI for 1 hour at 37° C. Then RPMI was removed. CM or negative (CM from serum-free treatment)/positive (10^−7 M interleukin (IL)-8 (R&D Systems, Minneapolis, Minn., USA)) controls were added to the 96-well black-walled receiver wells (Corning); 1.5×10^5 neutrophils in ECM were then added to the upper chamber of each insert and incubated for 1 hour to allow for neutrophil migration toward the conditioned medium. Cells that migrated through the membrane into the CM were then labelled with Calcein AM and incubated for 1 hour at 37° C. as described above. Fluorescence intensity was then measured from the bottom of the plate at 485 nm excitation, 520 nm emission using a fluorescence microplate reader (Biotek HT Synergy). A standard curve of Calcein AM-labelled neutrophils (using 1.5×10^5, 1.0×10^5, 5.0×10^4, 2.5×10^4, 1.25×10^4, 0.625×10^4 and 0 neutrophils) was created and fluorescence intensity was quantified on the microplate reader. The linear equation was then calculated and fluorescence intensity of samples could then be input into the linear equation to determine neutrophil cell number. The fluorescence intensity of migrated neutrophils in the lower chamber was measured as described (Jones Buie et al., Lupus Sci Med 2019; 6:e000294). All values were normalized to untreated controls.
# TLR 7/9 = settings: cited from earlier work
# p38α and p38β2 = settings: cited from earlier work
# iNOS = iNOS (Mus musculus, UniProt P29477); settings: cited from earlier work
# Sequence of iNOS (P29477 whole entry): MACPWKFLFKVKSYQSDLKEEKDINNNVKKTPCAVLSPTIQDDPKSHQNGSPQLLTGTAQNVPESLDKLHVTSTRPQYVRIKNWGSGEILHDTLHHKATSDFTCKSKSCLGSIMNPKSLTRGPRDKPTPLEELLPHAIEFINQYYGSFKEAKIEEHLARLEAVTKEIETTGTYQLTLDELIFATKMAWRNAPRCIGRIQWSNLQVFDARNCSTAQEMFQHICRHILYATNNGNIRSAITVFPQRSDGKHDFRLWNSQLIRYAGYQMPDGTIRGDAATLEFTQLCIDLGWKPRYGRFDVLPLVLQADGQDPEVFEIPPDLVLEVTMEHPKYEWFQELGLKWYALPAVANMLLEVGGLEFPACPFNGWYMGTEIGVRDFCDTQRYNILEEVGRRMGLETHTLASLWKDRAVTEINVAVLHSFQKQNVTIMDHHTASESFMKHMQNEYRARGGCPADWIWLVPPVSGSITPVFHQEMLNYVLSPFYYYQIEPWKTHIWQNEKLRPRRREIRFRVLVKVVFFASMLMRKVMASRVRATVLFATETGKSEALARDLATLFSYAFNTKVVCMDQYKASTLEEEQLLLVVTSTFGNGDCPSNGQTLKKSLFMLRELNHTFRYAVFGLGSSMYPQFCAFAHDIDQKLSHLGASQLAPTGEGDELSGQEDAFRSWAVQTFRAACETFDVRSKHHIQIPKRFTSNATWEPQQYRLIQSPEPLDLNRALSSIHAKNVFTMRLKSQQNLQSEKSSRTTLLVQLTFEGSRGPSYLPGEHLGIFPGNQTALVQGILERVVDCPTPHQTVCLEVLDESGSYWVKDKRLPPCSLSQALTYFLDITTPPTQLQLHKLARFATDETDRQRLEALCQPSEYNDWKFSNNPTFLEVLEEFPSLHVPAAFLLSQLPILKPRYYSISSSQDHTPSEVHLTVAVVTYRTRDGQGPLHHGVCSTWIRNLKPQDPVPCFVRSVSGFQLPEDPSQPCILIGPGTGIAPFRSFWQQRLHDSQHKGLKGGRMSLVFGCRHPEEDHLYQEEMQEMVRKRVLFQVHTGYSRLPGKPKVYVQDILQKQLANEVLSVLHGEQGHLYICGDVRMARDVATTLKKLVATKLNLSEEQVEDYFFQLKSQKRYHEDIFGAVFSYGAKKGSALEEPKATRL
# [3] = system: human renal glomerular endothelial cells (HRGEC); experiment: NO production (DAF-FM with urate) by HRGEC treated with LN serum; assay type: cell-based; settings: urate added, 5 μM L-Sepiapterin, 25 μM VAS2870
# Description: The inflammatory phenotype of HUVECs differs from microvascular endothelial cells and may not reflect mechanisms in glomerular endothelial cells. To confirm the uncoupling effects lead to functional changes in uncoupling and NO production by EC treated with LN serum in HRGEC, HRGEC as in FIG. 10 was treated with LN serum in a black walled 96-well plate. […] NO production was quantified using DAF-FM fluorescence with urate added to prevent ONOO— fluorescence. […] While not wishing to be bound to any particular theory, one possible explanation for this finding is that uncoupled NOS is a significant source of ROS in LN (Njoku, C. J. et al., 2005, J. Investig. Med., 53:347-52).
# HRGECs are plated at 3×10^4 cells per well in a 96-well black-walled plate and cultured in complete growth media at 37° C. in a humidified atmosphere with 5% CO2. Upon confluence, complete growth medium is removed, and cells washed in ECM-prf (phenol red free). Cells are incubated with 2 μM DAF-FM Diacetate for 60 minutes at 37° C., then cells washed in ECM-prf. […] 0.6 mM DPTA NONOate (Abcam) is a positive control, while L-NAME (100 μM) is a negative control. […] Plates are incubated for 30 minutes at 37° C. and read at 485/528 excitation/emission on a microplate reader (BioTek HT Synergy). […]
# intracellular BH4 = settings: compared with exogenous BH4 (Crabtree 2011); cited from earlier work
# [4] = system: humans with phenylketonuria and tetrahydrobiopterin deficiencies; settings: humans with phenylketonuria and tetrahydrobiopterin deficiencies (Smith 2019); cited from earlier work
# [5] = system: C57B6/J mice with angiotensin II minipump; experiment: Tail cuff blood pressure response to acetylcholine, angiotensin II model of hypertension; assay type: in vivo; settings: 10 mg/kg/d by gavage vs vehicle
# Description: To determine the effect of sepiapterin in a mouse model of hypertension, C57B6/J mice were implanted with an angiotensin II minipump for 2 weeks to induce hypertension. The animals were then treated with either sepiapterin 10 mg/kg/d by gavage or vehicle. A tail cuff measure of blood pressure was taken followed by injection of acetylcholine and a second tail cuff measure of blood pressure.
# [6] = system: human umbilical vein endothelial cells (HUVECs); experiment: Measurement of nitric oxide production (DAF-FM fluorescence, flow cytometry) in serum-cultured HUVECs; assay type: cell-based; settings: for DAF-FM MFI, a marker of NO production: L-sep 5 μM 6 hours
# Description: Primary human umbilical vein endothelial cells from pooled donors were purchased from Lonza (Walkersville, Md., USA) and cultured according to the manufacturer's instructions in 5% CO2 at 37° C. in humidified air. Cells were cultured in endothelial cell basal medium-2 (EBM-2) supplemented with EBM-2 SingleQuot (Lonza), pH 7.6-8.0. Media was changed every other day until cells were 70%-80% confluent. HUVECs were sub-cultured using TryPLE Express, pH 8.0 (ThermoFisher Scientific, Waltham, Mass., USA). Cell growth was limited to 12 population doublings, and all experiments were carried out using cells between passages 3-5. For serum experiments, cells were cultured with 20%-50% serum for 6 or 24 hours prior to further analysis.
# For real-time detection of NO production in HUVECs, 1.2×10^5 cells were seeded in a 12-well tissue culture plate. Following adherence, cells were serum starved for 6 hours in endothelial basal media (EBM) containing 0.2% fetal bovine serum (FBS). Cells were stimulated with either 50% healthy or SLE sera±L-sep (5 μM; 6 hours), the eNOS-specific inhibitor, Nω-Nitro-L-arginine (L-NNA, 10 μM; 30 min pre-incubation (Tocris; Bristol, UK)) or the NO donor 3,3′-diamino-4′-methoxyflavone (DD1, 10 μM, Tocris). Following stimulation, cells were washed twice with phosphate buffered saline (PBS) and loaded with 1 μM DAF-FM diacetate (4-amino-5-methylamino-2′,7′-difluorofluorescein diacetate, 1 μM) (ThermoFisher Scientific) in phenol red-free EBM for 30-45 min. […] A population of 2000-10 000 cells were gated to remove doublets and controls and analyzed based on their fluorescence intensities using a FACS Calibur flow cytometer (Becton Dickenson, San Diego, USA). The mean fluorescence intensity (MFI) was normalized to respective populations in unstimulated cells. In order to discriminate between NO and other gaseous molecules previously shown to augment DAF-FM fluorescence, a urate assay was performed to optimize the assay (data not shown).
# [7] = system: BALB/c mice with Angiotensin II minipumps; experiment: Systolic blood pressure in Angiotensin II minipump hypertension; assay type: in vivo
# Description: Hypertension was created in some BALB/c mice with Angiotensin II minipumps. Mice were treated half with CSNA-001 (L-sep) 8 days after the pumps were placed and baseline SBP checked. The decrease in systolic BP was significant in the treated mice but not the untreated (FIG. 21 and FIG. 22).
# HUVECs / neutrophils = experiment: Neutrophil adhesion assay on HUVECs; assay type: cell-based, human
# Description: HUVECs were plated at 5.0×10^4 cells/mL in a 24-well plate (Costar) and allowed to adhere overnight. HUVECs were serum starved for 3 hours in phenol-red free 0.2% FBS EBM media (Lonza) prior to activation with 10% sera for 4 hours. Tumor necrosis factor-α (100 ng/mL) was used as the positive control. Neutrophils isolated from healthy human blood as outlined previously were labelled with Calcein AM (Life Technologies) at 5×10^5 cells/mL. Neutrophils were washed gently four times in warm serum-free EBM culture media prior to co-culturing with HUVECs for 60 min after which non-adherent cells were removed by repeated gentle washing (four times) with EBM culture media. Fluorescence intensity was measured at 520 nM with a FLUOStar Omega microplate reader (Cary, N.C., USA), and images were captured using confocal microscopy. Data are reported as ratios of the number of neutrophils to the number of endothelial cells as averages from three different visual fields.
# Sequence of p38α (Q16539 whole entry): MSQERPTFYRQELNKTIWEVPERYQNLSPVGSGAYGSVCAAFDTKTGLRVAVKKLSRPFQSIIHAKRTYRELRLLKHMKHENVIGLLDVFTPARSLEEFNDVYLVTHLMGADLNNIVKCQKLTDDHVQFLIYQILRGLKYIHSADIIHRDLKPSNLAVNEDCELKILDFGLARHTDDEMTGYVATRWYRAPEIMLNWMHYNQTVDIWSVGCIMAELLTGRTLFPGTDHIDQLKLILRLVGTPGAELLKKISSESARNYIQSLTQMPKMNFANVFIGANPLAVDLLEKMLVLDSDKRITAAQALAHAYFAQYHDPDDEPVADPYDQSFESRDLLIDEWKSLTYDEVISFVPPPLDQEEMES
smiles,measurement,setting,value
Cc1c(F)cc(C(=O)NC2CC2)cc1-c1c(F)cn2c(C(C)(C)C)nnc2c1F [AL 8697],IC50,p38α,0.006 µM
"COc1c(C)c2c(c(O)c1C/C=C(\C)CCC(=O)OCCN1CCOCC1)C(=O)OC2 [CellCept, mycophenolate mofetil]","neutrophil adhesion, dosing effects of medication",HRGECs / neutrophils [1],No difference
same,"neutrophil migration, dosing effects of medication",HRGECs / neutrophils [2],No difference
CCN(CCO)CCCC(C)Nc1ccnc2cc(Cl)ccc12 (stereo not shown) [hydroxychloroquine],"neutrophil adhesion, dosing effects of medication",HRGECs / neutrophils [1],No difference
same,"neutrophil migration, dosing effects of medication",HRGECs / neutrophils [2],No difference
same,IC50,TLR 7/9,~4 µM
Cc1ccccc1C(=O)c1ccc(Nc2ccc(Br)cc2N)cc1Cl [EO1428],IC50,p38α and p38β2,0.074 µM
CC(=N)NCCCC[C@H](N)C(=O)O [L-NIL],IC50,iNOS,3.3 µM
"c1ccc(Cn2nnc3c(Sc4nc5ccccc5o4)ncnc32)cc1 [VAS2870, reference compound]",NO production (DAF-FM fluorescence),[3],not effective
"CC(O)C(=O)C1=Nc2c([nH]c(N)nc2=O)NC1 [L-sepiapterin, 2-amino-6-[-2-hydroxypropanoyl]-7,8-dihydro-1H-pteridin-4-one]",intracellular BH4 levels,intracellular BH4,more effectively than exogenous BH4
same,safety profile,[4],favorable
same,endothelial function (difference in tail cuff pressure after acetylcholine),[5],improves endothelial function
same,"DAF-FM MFI, a marker of NO production","[6]; SLE serum cultured HUVECs, 50% serum, vs SLE cultured cells without L-sepiapterin, p<0.01",significantly increased
same,"DAF-FM MFI, a marker of NO production",[6]; control serum cultured HUVECs,not observed
same,ratio in MFI-fold change between SLE serum+L-sepiapterin and SLE serum,"[6]; vs ratios in control and healthy serum culture conditions, p<0.001 and <0.01",significantly different
same,NO production (DAF-FM fluorescence),[3],increased more
same,decrease in systolic BP,"[7]; treated mice, 20 mg/kg daily, Day 7 to Day 14, cuff pressure",significant
same,mean blood pressure responses to acetyl choline,[7]; treated vs untreated mice,significant differences
same,differences in reduction of systolic blood pressure,"[7]; treated vs untreated mice, 20 mg/kg daily",about 8 mmHg
same,neutrophil adhesion induced by SLE serum,HUVECs / neutrophils; SLE serum cultured HUVECs,did not reverse neutrophil adhesion
same,neutrophil adhesion,"HUVECs / neutrophils; cells cultured in EBM-2 media, p<0.05",reversed neutrophil adhesion
"C[C@]12C=CC(=O)C=C1CC[C@@H]1[C@@H]2C(=O)C[C@@]2(C)[C@H]1CC[C@]2(O)C(=O)CO [Prednisone, prednisone]","neutrophil adhesion, dosing effects of medication",HRGECs / neutrophils [1],No difference
same,"neutrophil migration, dosing effects of medication",HRGECs / neutrophils [2],No difference
NCCCC[C@H](N[C@@H](CCc1ccccc1)C(=O)O)C(=O)N1CCC[C@H]1C(=O)O [Lisinopril],"neutrophil adhesion, dosing effects of medication",HRGECs / neutrophils [1],No difference
same,"neutrophil migration, dosing effects of medication",HRGECs / neutrophils [2],No difference
